Key:
E. coli ArnT = target: T1, E. coli ArnT (Escherichia coli, UniProt P76473); experiment: Polymyxin B growth assay for compound screening, BL21 strain; format: cell-based; conditions: E. coli BL21 strain carrying E. coli ArnT; compound 0.5 mM; 3 μg/ml Polymyxin B; OD 600 nm
T1 construct: it carries the endogenous E. coli ArnT gene; endogenous in cells; host or cells: E. coli BL21(DE3)
From the text: (§1) FIGS. 8A-J show graphic results of the polymyxin growth assay for the five Class I compounds obtained in target-based virtual screening. In this and all subsequent figures showing results of compound testing in the polymyxin growth assay, four curves are shown, (i) growth of test strain (BL21 for targeting E. coli ArnT or Gi24 for targeting S. typhimurium ArnT) in the absence of PMXB (−PMXB, represented by an open circle), (ii) growth of test strain in the presence of PMXB (+PMXB, represented by an open square), (iii) growth of test strain in the absence of PMXB and in the presence of test compound (−PMXB+Cmpd, represented by open diamond), and (iv) growth of test strain in the presence of PMXB and test compound (+PMXB+Cmpd, represented by an […]). Each point in the curves represents the mean of six measurements of absorbance (OD) at 600 nm (triplicate samples from two independent experiments). Standard deviation is not shown, but typically ranged from 0.001 to 0.1. Growth of E. coli BL21 strain (carrying the E. coli ArnT) was measured in the presence of Class I compounds 20, 14, 15, 19, or U2 (FIGS. 8A, 8C, SE, 8G and 8I, respectively). Growth of E. coli Gi24 strain (carrying the S. typhimurium ArnT) was measured in the presence of Class I compounds 20, 14, 15, 19, or U2 (FIGS. 8B, 8D, 8F, 8H and 8J, respectively). […]

[1] = target: T2, Salmonella typhimurium ArnT (Salmonella typhimurium, UniProt O52327); experiment: Polymyxin B growth assay for compound screening, Gi24 strain; format: cell-based; conditions: E. coli Gi24 strain carrying S. typhimurium ArnT; compound 0.5 mM; 3 μg/ml Polymyxin B; OD 600 nm
T2 construct: expressed in transfected cells; host or cells: E. coli BL21(DE3) ΔArnT transformed with plasmid pGi24 (strain Gi24)
From the text: as §1

E. coli BL21 strain = experiment: Control polymyxin growth assay, BL21 strain; format: cell-based, Escherichia coli; conditions: E. coli BL21, endogenous E. coli ArnT gene
From the text: (§2) E. coli BL21 strain is used to test efficacy of tested compounds towards the E. coli ArnT protein. […] Gi24 is E. coli BL21 ΔArnT that has been transformed with the plasmid pGi24 that expresses the wt Salmonella typhimurium ArnT. […] The Gi24 strain is used to test efficacy of tested compounds towards the Salmonella typhimurium ArnT protein.
(§3) Three strains were used for the implementation of the polymyxin B growth assay for compound screening in a 96-well plate format: (1) BL21 (DE3) E. coli strain (referred to as BL21). […] E. coli BL21 strain is used to test efficacy of tested compounds towards the E. coli ArnT protein. (2) E. coli BL21(DE3) ΔArnT the endogenous E. coli ArnT gene has been deleted, thus rendering the E. coli BL21 ΔArnT strain sensitive to polymyxin B (referred to as ΔArnT). (3) E. coli BL21(DE3) ΔArnT that has been transformed with the plasmid pGi24 that expresses the wt Salmonella typhimurium ArnT (referred to as Gi24). […]
(§4) Overnight cultures of the three strains were used to inoculate LB media containing 100 μg/ml Ampicillin alone (PMXB−) or 100 μg/ml and 3 μg/ml Polymyxin B (PMXB+) at 1:2000 dilution, as appropriate. […] The 96-well plate was transferred to an Epoch 2 microplate reader (Biotek) and shaken continuously at 37° C. Growth was continuously quantitated spectrophotometrically at 600 nm. […]

[2] = system: E. coli BL21 ΔArnT strain; experiment: Control polymyxin growth assay, BL21 ΔArnT strain; format: cell-based, Escherichia coli; conditions: endogenous ArnT gene deleted
From the text: as §2, §3, §4

[3] = system: Gi24 strain (E. coli BL21 ΔArnT expressing wt Salmonella typhimurium ArnT); experiment: Control polymyxin growth assay, Gi24 strain; format: cell-based, Escherichia coli; conditions: Gi24: BL21 ΔArnT with plasmid pGi24 expressing wt S. typhimurium ArnT
From the text: as §2, §3, §4

T1 sequence (P76473 whole entry): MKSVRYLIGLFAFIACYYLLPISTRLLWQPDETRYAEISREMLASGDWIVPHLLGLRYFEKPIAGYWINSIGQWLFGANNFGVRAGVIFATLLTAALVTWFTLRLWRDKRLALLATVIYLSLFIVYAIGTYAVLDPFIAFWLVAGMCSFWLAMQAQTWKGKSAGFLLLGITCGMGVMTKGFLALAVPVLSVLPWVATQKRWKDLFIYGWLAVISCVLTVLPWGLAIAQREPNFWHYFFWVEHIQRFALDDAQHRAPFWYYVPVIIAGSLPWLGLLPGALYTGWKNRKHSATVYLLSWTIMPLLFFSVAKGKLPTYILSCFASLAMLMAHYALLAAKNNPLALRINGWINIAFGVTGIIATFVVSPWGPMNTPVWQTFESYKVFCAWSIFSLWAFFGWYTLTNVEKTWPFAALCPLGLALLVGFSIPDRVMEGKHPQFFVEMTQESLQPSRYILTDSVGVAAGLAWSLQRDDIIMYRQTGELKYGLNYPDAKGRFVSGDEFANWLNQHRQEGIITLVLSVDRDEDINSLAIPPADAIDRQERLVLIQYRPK

Compound | ArnT inhibiting activity (retardation of growth of polymyxin resistant strain in the presence of PMXB) (E. coli ArnT) | ArnT inhibiting activity (retardation of growth of polymyxin resistant strain in the presence of PMXB) [1] | growth of strain in the presence of PMXB (E. coli BL21 strain) | growth of strain in the presence of PMXB [2] | growth of strain in the presence of PMXB [3]
Cc1[nH]nc(O)c1C(c1ccc(Cl)cc1)c1c(O)n[nH]c1C [Compound 20, 4-[(4-chlorophenyl)-(3-methyl-5-oxo-1,2-dihydropyrazol-4-yl)methyl]-5-methyl-1,2-dihydropyrazol-3-one] | especially strong ArnT inhibiting activity | especially strong ArnT inhibiting activity | – | – | –
polymyxin B | – | – | inherently resistant | absence of growth | growth of Gi24 strain in the presence of PMXB
